Mutagenic call data for six molecules are collected here from PubChem BioAssay AID1259407 (Chemical Carcinogenesis Research Information System (CCRIS), 2018).

Calls of active or inactive are those of the source. No rule for the calls is given here.

In the series the test system is CCRIS mutagenicity, Ames/micronucleus/aberration tests. As to the kind of experiment: CCRIS mutagenicity studies.
[1] abbreviates: Test System: AMES SALMONELLA TYPHIMURIUM, Strain/Indicator: TA98, Metabolic Activation: NONE, Method: STANDARD PLATE.
[2] abbreviates: Test System: AMES SALMONELLA TYPHIMURIUM, Strain/Indicator: TA100, Metabolic Activation: NONE, Method: STANDARD PLATE.
The mark [3] stands for this setting: Test System: AMES SALMONELLA TYPHIMURIUM, Strain/Indicator: TA98, Metabolic Activation: HAMSTER, LIVER, S-9, AROCLOR 1254, Method: STANDARD PLATE.
The mark [4] stands for this setting: Test System: AMES SALMONELLA TYPHIMURIUM, Strain/Indicator: TA98, Metabolic Activation: RAT, LIVER, S-9, AROCLOR 1254, Method: STANDARD PLATE.
[5] abbreviates: Test System: AMES SALMONELLA TYPHIMURIUM, Strain/Indicator: TA100, Metabolic Activation: HAMSTER, LIVER, S-9, AROCLOR 1254, Method: STANDARD PLATE.
Setting [6] is: Test System: AMES SALMONELLA TYPHIMURIUM, Strain/Indicator: TA100, Metabolic Activation: RAT, LIVER, S-9, AROCLOR 1254, Method: STANDARD PLATE.
The mark [7] stands for this setting: Test System: AMES SALMONELLA TYPHIMURIUM, Strain/Indicator: TA1535, Metabolic Activation: HAMSTER, LIVER, S-9, AROCLOR 1254, Method: STANDARD PLATE.
Where [8] appears, read: Test System: AMES SALMONELLA TYPHIMURIUM, Strain/Indicator: TA1535, Metabolic Activation: NONE, Method: STANDARD PLATE.
The mark [9] stands for this setting: Test System: AMES SALMONELLA TYPHIMURIUM, Strain/Indicator: TA1535, Metabolic Activation: RAT, LIVER, S-9, AROCLOR 1254, Method: STANDARD PLATE.
The mark [10] stands for this setting: Test System: AMES SALMONELLA TYPHIMURIUM, Strain/Indicator: TA1537, Metabolic Activation: HAMSTER, LIVER, S-9, AROCLOR 1254, Method: STANDARD PLATE.
The mark [11] stands for this setting: Test System: AMES SALMONELLA TYPHIMURIUM, Strain/Indicator: TA1537, Metabolic Activation: NONE, Method: STANDARD PLATE.
The mark [12] stands for this setting: Test System: AMES SALMONELLA TYPHIMURIUM, Strain/Indicator: TA1537, Metabolic Activation: RAT, LIVER, S-9, AROCLOR 1254, Method: STANDARD PLATE.
Where [13] appears, read: Test System: AMES SALMONELLA TYPHIMURIUM, Strain/Indicator: TA1538, Metabolic Activation: HAMSTER, LIVER, S-9, AROCLOR 1254, Method: STANDARD PLATE.
[14] abbreviates: Test System: AMES SALMONELLA TYPHIMURIUM, Strain/Indicator: TA1538, Metabolic Activation: NONE, Method: STANDARD PLATE.
The mark [15] stands for this setting: Test System: AMES SALMONELLA TYPHIMURIUM, Strain/Indicator: TA1538, Metabolic Activation: RAT, LIVER, S-9, AROCLOR 1254, Method: STANDARD PLATE.
[16] abbreviates: Test System: MOUSE LYMPHOMA, Strain/Indicator: L5178Y (TK+/TK-), Metabolic Activation: NONE, Method: SUSPENSION/PLATE.
[17] abbreviates: Test System: MOUSE LYMPHOMA, Strain/Indicator: L5178Y (TK+/TK-), Metabolic Activation: RAT, LIVER, S-9, AROCLOR 1254, Method: SUSPENSION/PLATE.

For `Cc1cccc(C)c1NC(=O)CN1CCCC1=O`, the mutagenic call (Test System: AMES SALMONELLA TYPHIMURIUM, Strain/Indicator: TA98, Metabolic Activation: NONE, Method: PREINCUBATION) is “inactive; negative”; the mutagenic call (Test System: AMES SALMONELLA TYPHIMURIUM, Strain/Indicator: TA98, Metabolic Activation: RAT, LIVER, S-9, SODIUM PHENOBARBITAL AND 5,6-BENZOFLAVONE, Method: PREINCUBATION) is “inactive; negative”; the mutagenic call (Test System: AMES SALMONELLA TYPHIMURIUM, Strain/Indicator: TA100, Metabolic Activation: NONE, Method: PREINCUBATION) was “inactive; negative”; the mutagenic call (Test System: AMES SALMONELLA TYPHIMURIUM, Strain/Indicator: TA100, Metabolic Activation: RAT, LIVER, S-9, SODIUM PHENOBARBITAL AND 5,6-BENZOFLAVONE, Method: PREINCUBATION) was “inactive; negative”; the mutagenic call (Test System: AMES SALMONELLA TYPHIMURIUM, Strain/Indicator: TA1535, Metabolic Activation: NONE, Method: PREINCUBATION) is “inactive; negative”; the mutagenic call (Test System: AMES SALMONELLA TYPHIMURIUM, Strain/Indicator: TA1535, Metabolic Activation: RAT, LIVER, S-9, SODIUM PHENOBARBITAL AND 5,6-BENZOFLAVONE, Method: PREINCUBATION) is “inactive; negative”. In addition, the mutagenic call reads like this: (Test System: AMES SALMONELLA TYPHIMURIUM, Strain/Indicator: TA1537, Metabolic Activation: NONE, Method: PREINCUBATION) “inactive; negative”; (Test System: AMES SALMONELLA TYPHIMURIUM, Strain/Indicator: TA1537, Metabolic Activation: RAT, LIVER, S-9, SODIUM PHENOBARBITAL AND 5,6-BENZOFLAVONE, Method: PREINCUBATION) “inactive; negative”; (Test System: E. COLI, Strain/Indicator: WP2 UVRA, Metabolic Activation: NONE, Method: PREINCUBATION) “inactive; negative”; (Test System: E. COLI, Strain/Indicator: WP2 UVRA, Metabolic Activation: RAT, LIVER, S-9, SODIUM PHENOBARBITAL AND 5,6-BENZOFLAVONE, Method: PREINCUBATION) “inactive; negative”.

Consider `O=[N+]([O-])c1cc2ccccc2c2c([N+](=O)[O-])cccc12`, for which the mutagenic call (Test System: AMES SALMONELLA TYPHIMURIUM, Strain/Indicator: TA98(1,8-DNP6), Metabolic Activation: NONE, Method: STANDARD PLATE) is “active; positive”; the mutagenic call (Test System: AMES SALMONELLA TYPHIMURIUM, Strain/Indicator: TA98(NR), Metabolic Activation: NONE, Method: STANDARD PLATE) was “active; positive”; the mutagenic call under setting [1] was “active; positive”; the mutagenic call under setting [2] was “active; positive”; the mutagenic call (Test System: AMES SALMONELLA TYPHIMURIUM, Strain/Indicator: YG1021, Metabolic Activation: NONE, Method: STANDARD PLATE) was “active; positive”; the mutagenic call (Test System: AMES SALMONELLA TYPHIMURIUM, Strain/Indicator: YG1024, Metabolic Activation: NONE, Method: STANDARD PLATE) is “active; positive”. Besides, the mutagenic call was “active; positive” (Test System: AMES SALMONELLA TYPHIMURIUM, Strain/Indicator: YG1026, Metabolic Activation: NONE, Method: STANDARD PLATE) and “active; positive” (Test System: AMES SALMONELLA TYPHIMURIUM, Strain/Indicator: YG1029, Metabolic Activation: NONE, Method: STANDARD PLATE).

As to `CCCCCCCCCC/C=C/C1CC(=O)OC1=O` (configuration not stated), the mutagenic call is, setting by setting: under setting [3], “inactive; negative”; under setting [1], “inactive; negative”; under setting [4], “inactive; negative”; under setting [5], “inactive; negative”; under setting [2], “inactive; negative”; under setting [6], “inactive; negative”. Moreover, the mutagenic call reads like this: under setting [7], “inactive; negative”; under setting [8], “inactive; negative”; under setting [9], “inactive; negative”; under setting [10], “inactive; negative”; under setting [11], “inactive; negative”; under setting [12], “inactive; negative”. In addition, the mutagenic call was “inactive; negative” under setting [13]; “inactive; negative” under setting [14]; “inactive; negative” under setting [15]; “inactive; negative. reevaluation of results: inconclusive” under setting [16]; “inactive; negative. reevaluation of results: negative” under setting [17].

Consider `O=[N+]([O-])/C(Br)=C\c1ccccc1`, for which the mutagenic call runs as follows: under setting [3], “inactive; negative”; under setting [1], “inactive; negative”; under setting [4], “inactive; negative”; under setting [5], “inactive; negative”; under setting [2], “inactive; negative”; under setting [6], “inactive; negative”. The mutagenic call under setting [7] was “inactive; negative”; the mutagenic call under setting [8] was “inactive; negative”; the mutagenic call under setting [9] is “inactive; negative”; the mutagenic call under setting [10] was “inactive; negative”; the mutagenic call under setting [11] is “inactive; negative”; the mutagenic call under setting [12] was “inactive; negative”. In addition, the mutagenic call reads like this: under setting [13], “inactive; negative”; under setting [14], “inactive; negative”; under setting [15], “inactive; negative”; under setting [16], “inactive; negative. reevaluation of results: negative”; under setting [17], “inactive; negative. reevaluation of results: negative”.

For `Cc1ccc(N=O)cc1[N+](=O)[O-]`, the mutagenic call reads like this: (Test System: AMES SALMONELLA TYPHIMURIUM, Strain/Indicator: TA98, Metabolic Activation: NONE, Method: SUSPENSION/PLATE) “inactive; negative”; (Test System: AMES SALMONELLA TYPHIMURIUM, Strain/Indicator: TA98, Metabolic Activation: RAT, LIVER, S-9, PHENOBARBITAL AND 5,6-BENZOFLAVONE, Method: SUSPENSION/PLATE) “inactive; negative”; (Test System: AMES SALMONELLA TYPHIMURIUM, Strain/Indicator: TA100, Metabolic Activation: NONE, Method: SUSPENSION/PLATE) “inactive; negative”; (Test System: AMES SALMONELLA TYPHIMURIUM, Strain/Indicator: TA100, Metabolic Activation: RAT, LIVER, S-9, PHENOBARBITAL AND 5,6-BENZOFLAVONE, Method: SUSPENSION/PLATE) “inactive; negative”.

On to `ClCc1c2ccccc2cc2c1ccc1ccccc12`, for which the mutagenic call under setting [2] is “active; positive”.
